We go through 23 compounds from patent US11319299B2, “Substituted carboxamides as inhibitors of WDR5 protein-protein binding” (PROPELLON THERAPEUTICS INC., priority 2016, dated 2022).

Usually pKd stands for the negative decadic logarithm of the Kd, by convention in mol/L.

pKd: −log10 of the molar value.

One assay concerns the target WDR5 (Homo sapiens (Human), UniProt P61964). In words: Surface Plasmon Resonance (SPR) assay, KD and residence time. The class given is binding. As to conditions: surface plasmon resonance (SPR) assay; read-out: WDR5 binding affinity (KD). As to the method:
(i) Surface Plasmon Resonance (SPR) Assay
The lifetime of a drug on its target is determined by two rate constants: the association rate constant (kon) and the dissociation rate constant (koff). In principle, the lifetime of the binary drug—target complex is thus extended by a rapid rate of drug binding and/or a slow rate of drug—target complex dissociation. The in vivo lifetime of a drug-target complex is most critically dependent on the value of the koff [Nat. Rev. Drug Discov. […] Drug Discov. […] Drug-target residence time is defined as the reciprocal of koff (τ=1/koff), making the residence time a parameter that is easily measured by routine in vitro assay methods.
For orientation: SPR reads the build-up and loss of mass on a sensor chip optically.
In the case of `C[C@@H]1CN(c2cc(F)c(-c3ccc(N(C)C)nc3)cc2NC(=O)c2c[nH]c(=O)cc2C(F)(F)F)C[C@H](C)N1C` [Example 142, N-[5-[6-(dimethylamino)pyridin-3-yl]-4-fluoro-2-[(3R,5S)-3,4,5-trimethylpiperazin-1-yl]phenyl]-6-oxo-4-(trifluoromethyl)-1H-pyridine-3-carboxamide], the pKd is 9.01.

Consider `CC1CN(c2ncc(-c3cc(NC(=O)c4c[nH]c(=O)cc4C(F)(F)F)c(N4C[C@@H](C)N(C)[C@@H](C)C4)cc3F)cn2)CCO1` (stereo in doubt) [Example 390, N-[4-fluoro-5-[2-[(2R)-2-methylmorpholin-4-yl]pyrimidin-5-yl]-2-[(3S,5R)-3,4,5-trimethylpiperazin-1-yl]phenyl]-6-oxo-4-(trifluoromethyl)-1H-pyridine-3-carboxamide], for which the pKd was 9.20.

In the case of `C[C@@H]1CN(c2cc(F)c(-c3cnc(N4CCOCC4)c(C#N)c3)cc2NC(=O)c2c[nH]c(=O)cc2C(F)(F)F)C[C@H](C)N1C` [Example 170, N-[5-(5-cyano-6-morpholin-4-ylpyridin-3-yl)-4-fluoro-2-[(3R,5S)-3,4,5-trimethylpiperazin-1-yl]phenyl]-6-oxo-4-(trifluoromethyl)-1H-pyridine-3-carboxamide], the pKd is 8.93.

With `C[C@@H]1CN(c2cc(F)c(-c3ccc(Cl)cc3)cc2NC(=O)c2c[nH]c(=O)cc2C(F)(F)F)C[C@H](C)N1C` [Example 147, N-[5-(4-chlorophenyl)-4-fluoro-2-[(3R,5S)-3,4,5-trimethylpiperazin-1-yl]phenyl]-6-oxo-4-(trifluoromethyl)-1H-pyridine-3-carboxamide], the pKd is 8.35.

As to `C[C@@H]1CN(c2cc(F)c(-c3cnc(N4CCOCC4)c(Cl)c3)cc2NC(=O)c2c[nH]c(=O)cc2C(F)(F)F)C[C@H](C)N1C` [Example 222, N-[5-(5-chloro-6-morpholin-4-ylpyridin-3-yl)-4-fluoro-2-[(3R,5S)-3,4,5-trimethylpiperazin-1-yl]phenyl]-6-oxo-4-(trifluoromethyl)-1H-pyridine-3-carboxamide], the pKd is 8.87.

`CC1CN(c2cc(F)c(-c3ccc(N(C)C)nc3)cc2NC(=O)c2c[nH]c(=O)cc2C(F)(F)F)CCN1C` (stereo in doubt) [Example 219, N-[5-[6-(dimethylamino)pyridin-3-yl]-4-fluoro-2-[(3R)-3,4-dimethylpiperazin-1-yl]phenyl]-6-oxo-4-(trifluoromethyl)-1H-pyridine-3-carboxamide]: the pKd was 8.85.

Take `CN(C)[C@@H]1CCN(c2cc(F)c(-c3ccc(OCC4CC4)nc3)cc2NC(=O)c2c[nH]c(=O)cc2C(F)(F)F)C1` [Example 238, N-[5-[6-(cyclopropylmethoxy)pyridin-3-yl]-4-fluoro-2-[(3R)-3-(dimethylamino)pyrrolidin-1-yl]phenyl]-6-oxo-4-(trifluoromethyl)-1H-pyridine-3-carboxamide]: the pKd is 8.29.

With `CC1CN(c2cc(F)c(-c3cnc(N4CCOCC4)nc3)cc2NC(=O)c2cn(C)nc2C(F)(F)F)CCN1C` (stereo in doubt) [Example 284, N-[4-fluoro-5-(2-morpholin-4-ylpyrimidin-5-yl)-2-[(3R)-3,4-dimethylpiperazin-1-yl]phenyl]-1-methyl-3-(trifluoromethyl)pyrazole-4-carboxamide], the pKd is 8.09.

Turning to `C[C@@H]1CN(c2cc(F)c(-c3cnc(N4CCOCC4)nc3)cc2NC(=O)c2cccc(Cl)c2Cl)C[C@H](C)N1C` [Example 213, 2,3-dichloro-N-[4-fluoro-5-(2-morpholin-4-ylpyrimidin-5-yl)-2-[(3R,5S)-3,4,5-trimethylpiperazin-1-yl]phenyl]benzamide], the pKd was 8.16.

For `C[C@@H]1CN(c2cc(F)c(C3=CCN(C4COC4)CC3)cc2NC(=O)c2c[nH]c(=O)cc2C(F)(F)F)C[C@H](C)N1C` [Example 235, N-[4-fluoro-5-[1-(oxetan-3-yl)-3,6-dihydro-2H-pyridin-4-yl]-2-[(3R,5S)-3,4,5-trimethylpiperazin-1-yl]phenyl]-6-oxo-4-(trifluoromethyl)-1H-pyridine-3-carboxamide], the pKd is 9.03.

Take `C[C@@H]1CN(c2cc(F)c(-c3cnc(N(C)C4CCOC4)nc3)cc2NC(=O)c2c[nH]c(=O)cc2C(F)(F)F)C[C@H](C)N1C` (stereo in doubt) [Example 363, N-[4-fluoro-5-[2-[methyl-[(3R)-oxolan-3-yl]amino]pyrimidin-5-yl]-2-[(3S,5R)-3,4,5-trimethylpiperazin-1-yl]phenyl]-6-oxo-4-(trifluoromethyl)-1H-pyridine-3-carboxamide]: the pKd is 9.20.

As for `COc1ccc(CN2CC=C(c3cc(NC(=O)c4c[nH]c(=O)cc4C(F)(F)F)c(N4C[C@@H](C)N(C)[C@@H](C)C4)cc3F)CC2)cc1` [Example 148, N-[4-fluoro-5-[1-[(4-methoxyphenyl)methyl]-3,6-dihydro-2H-pyridin-4-yl]-2-[(3R,5S)-3,4,5-trimethylpiperazin-1-yl]phenyl]-6-oxo-4-(trifluoromethyl)-1H-pyridine-3-carboxamide], the pKd was 9.27.

As to `CC(=O)N1CC=C(c2cc(NC(=O)c3c[nH]c(=O)cc3C(F)(F)F)c(N3C[C@@H](C)N(C)[C@@H](C)C3)cc2F)CC1` [Example 252, N-[5-(1-acetyl-3,6-dihydro-2H-pyridin-4-yl)-4-fluoro-2-[(3R,5S)-3,4,5-trimethylpiperazin-1-yl]phenyl]-6-oxo-4-(trifluoromethyl)-H-pyridine-3-carboxamide], the pKd is 8.55.

As for `C[C@@H]1CN(c2cc(F)c(-c3ccc(OCC4CC4)cc3)cc2NC(=O)c2c[nH]c(=O)cc2C(F)(F)F)C[C@H](C)N1C` [Example 113, N-[5-[4-(cyclopropylmethoxy)phenyl]-4-fluoro-2-[(3R,5S)-3,4,5-trimethylpiperazin-1-yl]phenyl]-6-oxo-4-(trifluoromethyl)-1H-pyridine-3-carboxamide], the negative logarithm of the Kd (pKd) was 9.07.

Turning to `C[C@H]1CN(c2cc(F)c(-c3cnc(N4CCN(C)CC4)nc3)cc2NC(=O)c2ccc(F)cc2C(F)(F)F)C[C@H](C)N1C` (racemic) [Example 382, 4-fluoro-N-[4-fluoro-5-[2-(4-methylpiperazin-1-yl)pyrimidin-5-yl]-2-[(3R,5R)-3,4,5-trimethylpiperazin-1-yl]phenyl]-2-(trifluoromethyl)benzamide], the pKd was 6.93.

Still in this assay, the particulars now being: surface plasmon resonance (SPR); read-out: WDR5 binding affinity (KD).
For the compound `CNC(=O)c1cc(-c2cc(NC(=O)c3c[nH]c(=O)cc3C(F)F)c(N3CCN(C)C(C)C3)cc2F)ccc1F` (stereo in doubt) [Example 598, 4-(difluoromethyl)-N-[4-fluoro-5-[4-fluoro-3-(methylcarbamoyl)phenyl]-2-[(3R)-3,4-dimethylpiperazin-1-yl]phenyl]-6-oxo-1H-pyridine-3-carboxamide], the pKd is 8.82.

Regarding `CCN(CC)[C@@H]1CCN(c2cc(F)c(-c3cnc(N4CCOCC4)nc3)cc2NC(=O)c2c[nH]c(=O)cc2C(F)(F)F)C1` [Example 419, N-[4-fluoro-5-(2-morpholin-4-ylpyrimidin-5-yl)-2-[(3R)-3-(diethylamino)pyrrolidin-1-yl]phenyl]-6-oxo-4-(trifluoromethyl)-1H-pyridine-3-carboxamide], the pKd is 8.27.

Turning to `CC1CN(c2cc(F)c(C3=CCCN(C(=O)OC4CC(F)(F)C4)C3)cc2NC(=O)c2ccc(F)cc2C(F)(F)F)CCN1C` (stereo in doubt) [Example 706, (3,3-difluorocyclobutyl) 5-[2-fluoro-5-[[4-fluoro-2-(trifluoromethyl)benzoyl]amino]-4-[(3R)-3,4-dimethylpiperazin-1-yl]phenyl]-3,6-dihydro-2H-pyridine-1-carboxylate], the pKd is 8.42.

On to “N-[4-fluoro-5-[2-[(2R,6S)-2,6-dimethylmorpholin-4-yl]pyrimidin-4-yl]-2-[(3R)-3,4-dimethylpiperazin-1-yl]phenyl]-6-oxo-4-(trifluoromethyl)-1H-pyridine-3-carboxamide [Example 698]”, for which the pKd is 8.80.

In the case of `C[C@@H]1CN(c2cc(F)c(C3=CCCN(c4nc(C#N)cs4)C3)cc2NC(=O)c2c[nH]c(=O)cc2C(F)(F)F)C[C@H](C)N1C` [Example 642, N-[5-[1-(4-cyano-1,3-thiazol-2-yl)-3,6-dihydro-2H-pyridin-5-yl]-4-fluoro-2-[(3R,5S)-3,4,5-trimethylpiperazin-1-yl]phenyl]-6-oxo-4-(trifluoromethyl)-1H-pyridine-3-carboxamide], the negative-log Kd (pKd) was 8.89.

As for `CCc1ccc(N2CC=C(c3cc(NC(=O)c4c[nH]c(=O)cc4C(F)(F)F)c(N4C[C@@H](C)N(C)[C@@H](C)C4)cc3F)CC2)nn1` [Example 504, N-[5-[1-(6-ethylpyridazin-3-yl)-3,6-dihydro-2H-pyridin-4-yl]-4-fluoro-2-[(3R,5S)-3,4,5-trimethylpiperazin-1-yl]phenyl]-6-oxo-4-(trifluoromethyl)-1H-pyridine-3-carboxamide], the pKd is 8.61.

Consider `C[C@@H]1CN(c2ccc(-c3cc(NC(=O)c4c[nH]c(=O)cc4C(F)F)c(N4C[C@@H](C)N(C)[C@@H](C)C4)cc3F)cn2)C[C@H](C)O1` [Example 511, 4-(difluoromethyl)-N-[4-fluoro-5-[6-[(2R,6S)-2,6-dimethylmorpholin-4-yl]pyridin-3-yl]-2-[(3R,5S)-3,4,5-trimethylpiperazin-1-yl]phenyl]-6-oxo-1H-pyridine-3-carboxamide], for which the negative-log Kd (pKd) was 9.11.

As to `C[C@@H]1CN(c2ccc(-c3cc(NC(=O)c4cn(C)c(=O)cc4C(F)(F)F)c(N4CCN(C)[C@@H](C)C4)cc3F)cn2)C[C@H](C)O1` (racemic) [Example 421, N-[4-fluoro-5-[6-[(2R,6S)-2,6-dimethylmorpholin-4-yl]pyridin-3-yl]-2-[(3R)-3,4-dimethylpiperazin-1-yl]phenyl]-1-methyl-6-oxo-4-(trifluoromethyl)pyridine-3-carboxamide], the pKd was 8.71.
